Laboratory results taken from ChEMBL document CHEMBL1130125, “beta-Methylation of the Phe7 and Trp9 melanotropin side chain pharmacophores affects ligand-receptor interactions and prolonged biological activity” (J Med Chem, 1997).

Experiments:
[1] = Decrease in lizard skin reflectivity ([…] activity).; format: functional
[2] = target: frog skin melanocortin receptor (Rana pipiens); test: Decrease in frog skin reflectivity ([…] activity).
[3] = system: frog skin melanocortin receptor (Rana pipiens); test: Relative potency compared to alpha MSH in a frog skin bioassay.
lizard = test: Relative potency compared to alpha MSH in a lizard skin bioassay.; format: functional

SMILES	EC50 [1] [nM]	EC50 [2] [nM]	Relative potency [3]	Relative potency (lizard)
CCCC[C@H](NC(=O)[C@H](CO)NC(=O)[C@H](Cc1ccc(O)cc1)NC(=O)[C@H](CO)NC(C)=O)C(=O)N[C@@H](CCC(=O)O)C(=O)N[C@@H](Cc1c[nH]cn1)C(=O)N[C@H](C(=O)N[C@@H](CCCN=C(N)N)C(=O)N[C@@H](Cc1c[nH]c2ccccc12)C(=O)NCC(=O)N[C@@H](CCCCN)C(=O)N1CCC[C@H]1C(=O)N[C@H](C(N)=O)C(C)C)[C@H](C)c1ccccc1	1			
CCCC[C@H](NC(=O)[C@H](CO)NC(=O)[C@H](Cc1ccc(O)cc1)NC(=O)[C@H](CO)NC(C)=O)C(=O)N[C@@H](CCC(=O)O)C(=O)N[C@@H](Cc1c[nH]cn1)C(=O)N[C@H](C(=O)N[C@@H](CCCN=C(N)N)C(=O)N[C@@H](Cc1c[nH]c2ccccc12)C(=O)NCC(=O)N[C@@H](CCCCN)C(=O)N1CCC[C@H]1C(=O)N[C@H](C(N)=O)C(C)C)[C@@H](C)c1ccccc1	3.33			
CCCC[C@H](NC(C)=O)C(=O)N[C@H]1CC(=O)NCCCC[C@@H](C(N)=O)NC(=O)[C@H]([C@@H](C)c2c[nH]c3ccccc23)NC(=O)[C@H](CCCN=C(N)N)NC(=O)[C@@H](Cc2ccccc2)NC(=O)[C@H](Cc2c[nH]cn2)NC1=O	1			
CCCC[C@H](NC(C)=O)C(=O)N[C@H]1CC(=O)NCCCC[C@@H](C(N)=O)NC(=O)[C@H]2Cc3c([nH]c4ccccc34)CN2C(=O)[C@H](CCCNC(=N)N)NC(=O)[C@@H](Cc2ccccc2)NC(=O)[C@H](Cc2cnc[nH]2)NC1=O	11.1	1		
CCCC[C@H](NC(C)=O)C(=O)N[C@H]1CC(=O)NCCCC[C@@H](C(N)=O)NC(=O)[C@@H]2Cc3c([nH]c4ccccc34)CN2C(=O)[C@H](CCCNC(=N)N)NC(=O)[C@@H](Cc2ccccc2)NC(=O)[C@H](Cc2cnc[nH]2)NC1=O	20	3.33		
CCCC[C@H](NC(C)=O)C(=O)N[C@H]1CC(=O)NCCCC[C@H](C(N)=O)NC(=O)[C@H]([C@@H](C)c2c[nH]c3ccccc23)NC(=O)[C@H](CCCN=C(N)N)NC(=O)[C@@H](Cc2ccccc2)NC(=O)[C@H](Cc2c[nH]cn2)NC1=O			0.23	1
CCCC[C@H](NC(C)=O)C(=O)N[C@H]1CC(=O)NCCCCC(C(N)=O)NC(=O)[C@H](Cc2c[nH]c3ccccc23)NC(=O)[C@H](CCCN=C(N)N)NC(=O)[C@@H]([C@@H](C)c2ccccc2)NC(=O)[C@H](Cc2c[nH]cn2)NC1=O (single isomer, unassigned)	0.3	2	0.05	3.3
CCCC[C@H](NC(C)=O)C(=O)N[C@H]1CC(=O)NCCCCC(C(N)=O)NC(=O)[C@H](Cc2c[nH]c3ccccc23)NC(=O)[C@H](CCCN=C(N)N)NC(=O)C([C@@H](C)c2ccccc2)NC(=O)[C@H](Cc2c[nH]cn2)NC1=O (single isomer, unassigned)	3.44	6.25	0.016	0.29
CCCC[C@H](NC(C)=O)C(=O)N[C@H]1CC(=O)NCCCCC(C(N)=O)NC(=O)[C@H]([C@H](C)c2c[nH]c3ccccc23)NC(=O)[C@H](CCCN=C(N)N)NC(=O)C(Cc2ccccc2)NC(=O)[C@H](Cc2c[nH]cn2)NC1=O (single isomer, unassigned)	6.67		0.004	0.15
CCCC[C@H](NC(C)=O)C(=O)N[C@H]1CC(=O)NCCCCC(C(N)=O)NC(=O)[C@H](Cc2c[nH]c3ccccc23)NC(=O)[C@H](CCCN=C(N)N)NC(=O)[C@@H]([C@H](C)c2ccccc2)NC(=O)[C@H](Cc2c[nH]cn2)NC1=O (single isomer, unassigned; 5) [listing 1 of 2 here]	0.2	6.25		
CCCC[C@H](NC(C)=O)C(=O)N[C@H]1CC(=O)NCCCCC(C(N)=O)NC(=O)[C@H](Cc2c[nH]c3ccccc23)NC(=O)[C@H](CCCN=C(N)N)NC(=O)[C@@H]([C@H](C)c2ccccc2)NC(=O)[C@H](Cc2c[nH]cn2)NC1=O (single isomer, unassigned; 5) [listing 2 of 2 here]			0.016	5
CCCC[C@H](NC(C)=O)C(=O)N[C@H]1CC(=O)NCCCCC(C(N)=O)NC(=O)[C@H](Cc2c[nH]c3ccccc23)NC(=O)[C@H](CCCN=C(N)N)NC(=O)[C@@H]([C@H](C)c2ccccc2)NC(=O)[C@H](Cc2c[nH]cn2)NC1=O (single isomer, unassigned; 7) [listing 1 of 2 here]	20	16.7		
CCCC[C@H](NC(C)=O)C(=O)N[C@H]1CC(=O)NCCCCC(C(N)=O)NC(=O)[C@H](Cc2c[nH]c3ccccc23)NC(=O)[C@H](CCCN=C(N)N)NC(=O)[C@@H]([C@H](C)c2ccccc2)NC(=O)[C@H](Cc2c[nH]cn2)NC1=O (single isomer, unassigned; 7) [listing 2 of 2 here]			0.006	0.05
CCCC[C@H](NC(C)=O)C(=O)N[C@H]1CC(=O)NCCCCC(C(N)=O)NC(=O)C([C@H](C)c2c[nH]c3ccccc23)NC(=O)[C@H](CCCN=C(N)N)NC(=O)C(Cc2ccccc2)NC(=O)[C@H](Cc2c[nH]cn2)NC1=O (single isomer, unassigned; 10) [listing 1 of 2 here]	1.43	0.06		
CCCC[C@H](NC(C)=O)C(=O)N[C@H]1CC(=O)NCCCCC(C(N)=O)NC(=O)C([C@H](C)c2c[nH]c3ccccc23)NC(=O)[C@H](CCCN=C(N)N)NC(=O)C(Cc2ccccc2)NC(=O)[C@H](Cc2c[nH]cn2)NC1=O (single isomer, unassigned; 10) [listing 2 of 2 here]			1.6	0.7
CCCC[C@H](NC(C)=O)C(=O)N[C@H]1CC(=O)NCCCCC(C(N)=O)NC(=O)C([C@H](C)c2c[nH]c3ccccc23)NC(=O)[C@H](CCCN=C(N)N)NC(=O)C(Cc2ccccc2)NC(=O)[C@H](Cc2c[nH]cn2)NC1=O (single isomer, unassigned; 11) [listing 1 of 2 here]	1	0.33		
CCCC[C@H](NC(C)=O)C(=O)N[C@H]1CC(=O)NCCCCC(C(N)=O)NC(=O)C([C@H](C)c2c[nH]c3ccccc23)NC(=O)[C@H](CCCN=C(N)N)NC(=O)C(Cc2ccccc2)NC(=O)[C@H](Cc2c[nH]cn2)NC1=O (single isomer, unassigned; 11) [listing 2 of 2 here]			0.3	1
CCCC[C@H](NC(=O)[C@H](CO)NC(=O)[C@H](Cc1ccc(O)cc1)NC(=O)[C@H](CO)NC(C)=O)C(=O)N[C@@H](CCC(=O)O)C(=O)N[C@@H](Cc1c[nH]cn1)C(=O)N[C@@H](C(=O)N[C@@H](CCCN=C(N)N)C(=O)N[C@@H](Cc1c[nH]c2ccccc12)C(=O)NCC(=O)N[C@@H](CCCCN)C(=O)N1CCC[C@H]1C(=O)N[C@H](C(N)=O)C(C)C)[C@@H](C)c1ccccc1 (stereo in doubt; 16)	0.5			
CCCC[C@H](NC(=O)[C@H](CO)NC(=O)[C@H](Cc1ccc(O)cc1)NC(=O)[C@H](CO)NC(C)=O)C(=O)N[C@@H](CCC(=O)O)C(=O)N[C@@H](Cc1c[nH]cn1)C(=O)N[C@@H](C(=O)N[C@@H](CCCN=C(N)N)C(=O)N[C@@H](Cc1c[nH]c2ccccc12)C(=O)NCC(=O)N[C@@H](CCCCN)C(=O)N1CCC[C@H]1C(=O)N[C@H](C(N)=O)C(C)C)[C@@H](C)c1ccccc1 (stereo in doubt; 17)	1			
